Counter-ions that a name gives are not always drawn.
Assays:
[1] = target: cloned human P2Y1 receptors (Homo sapiens (Human), UniProt P47900); assay: Binding Assay B - Scintillation Proximity Assay (SPA) for P2Y1 binding, [33P] 2MeS-ADP; conditions: SPA, 0.3 nM [33P] 2MeS-ADP, Cheng-Prusoff; read-out: P2Y1 Ki (nM) using binding assay B
Method: Binding Assay B—Scintillation Proximity Assay (SPA) for P2Y1 Binding
A SPA membrane binding assay was used to identify inhibitors of [^33P] […] Reactions were allowed to proceed to completion at room temperature for 1 hour followed by centrifugation of the plate for 5 min. About 40 μL of the aqueous solution was aspirated. Plates were sealed and the [^33P]

[2] = system: human platelet rich plasma (PRP); assay: ADP induced platelet aggregation assay; conditions: Homo sapiens, Platelet, 5 min, read-out: PA IC50 (μM) @ 10 μM ADP, human PRP, 10 μM ADP, AUC at 5 minute
Method: The ability of P2Y1 antagonists covered in the present invention to inhibit platelet aggregation induced by 10 μM ADP was tested using human platelet rich plasma (PRP) as described in Platelet Protocols: Research and Clinical Laboratory Procedures (White, M. M. et al., Academic Press (1999)). Human blood was collected in 30 μM (final concentration in blood) argatroban (GSK) as the anticoagulant at a ratio of 1 mL per 9 mL of blood. The PRP was isolated by centrifugation at 170 g for 12 minutes. The platelet poor plasma (PPP) was used as the blank for optical aggregometry. Compounds of the present invention in DMSO solution was preincubated with 250 μL PRP at 37° C. for 1 minute with stirring speed of 1000 rpm. Aggregation was initiated by addition of 2.5 μL of 1 mM ADP (Chrono-log, Havertown, Pa.) for a final ADP concentration of 10 μM. Platelet aggregation was monitored using Optical Aggregometer (Chrono-log, Havertown, Pa.) and the area under the curve (AUC) at 5 minute was measured. IC50 was calculated using vehicle control as 0% inhibition.

cloned human P2Y1 receptors, sequence (P47900 whole entry): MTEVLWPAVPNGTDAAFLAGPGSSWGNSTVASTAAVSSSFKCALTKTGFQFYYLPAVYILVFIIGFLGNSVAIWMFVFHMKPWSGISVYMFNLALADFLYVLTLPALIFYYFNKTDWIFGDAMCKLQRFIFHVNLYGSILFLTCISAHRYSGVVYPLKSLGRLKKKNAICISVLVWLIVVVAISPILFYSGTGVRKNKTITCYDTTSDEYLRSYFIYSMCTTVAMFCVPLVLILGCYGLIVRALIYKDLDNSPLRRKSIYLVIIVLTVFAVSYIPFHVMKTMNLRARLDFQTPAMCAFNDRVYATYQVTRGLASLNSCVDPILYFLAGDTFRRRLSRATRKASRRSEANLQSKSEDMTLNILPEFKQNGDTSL

| Compound | Ki [1] [nM] | IC50 [2] [µM] |
| --- | --- | --- |
| CC1(C)CN(c2ccccc2NC(=O)Nc2ccc(OC(F)(F)F)cc2)c2c(O)ccc(-c3ccc(C(F)(F)F)nc3)c21 [Example 120, 1-(2-(7-Hydroxy-3,3-dimethyl-4-(6-(trifluoromethyl)pyridin-3-yl)indolin-1-yl)phenyl)-3-(4-(trifluoromethoxy)phenyl)urea,TFA] | 7.9 | 0.14 |
| CC1(C)CN(c2ccccc2NC(=O)Nc2ccc(OC(F)(F)F)cc2)c2c(O)ccc(-c3ccc(Cl)s3)c21 [Example 121, 1-(2-(4-(5-Chlorothiophen-2-yl)-7-hydroxy-3,3-dimethylindolin-1-yl)phenyl)-3-(4-(trifluoromethoxy)phenyl)urea] | 113 | 0.2 |
| CC1(C)CN(c2ccccc2NC(=O)Nc2nc3ccc(Cl)cc3s2)c2c(O)ccc(-c3nc4ccc(F)cc4s3)c21 [Example 128, 1-(6-Chlorobenzo[d]thiazol-2-yl)-3-(2-(4-(6-fluorobenzo[d]thiazol-2-yl)-7-hydroxy-3,3-dimethylindolin-1-yl)phenyl)urea] | 108 | 0.24 |
| CC1(C)CN(c2ccccc2NC(=O)Nc2ccc(OC(F)(F)F)cc2)c2c(O)c(F)cc(-c3ccc(C(F)(F)F)cn3)c21 [Example 129, 1-(2-(6-Fluoro-7-hydroxy-3,3-dimethyl-4-(5-(trifluoromethyl)pyridin-2-yl)indolin-1-yl)phenyl)-3-(4-(trifluoromethoxy)phenyl)urea] | 15.3 | 0.71 |
| CC1(C)CN(c2ccccc2NC(=O)Nc2ccc(OC(F)(F)F)cc2)c2c(O)c(F)cc(-c3nc4ccc(Cl)cc4s3)c21 [Example 130, 1-(2-(4-(6-Chlorobenzo[d]thiazol-2-yl)-6-fluoro-7-hydroxy-3,3-dimethylindolin-1-yl)phenyl)-3-(4-(trifluoromethoxy)phenyl)urea] | 93.5 | 1.8 |
| CC1(C)CN(c2ccccc2NC(=O)Nc2ccc(OC(F)(F)F)cc2)c2c(O)ccc(-c3cnc(Cl)cn3)c21 [Example 131, 1-(2-(4-(5-Chloropyrazin-2-yl)-7-hydroxy-3,3-dimethylindolin-1-yl)phenyl)-3-(4-(trifluoromethoxy)phenyl)urea] | 9.1 | 0.42 |
| CC1(C)CN(c2ccccc2NC(=O)Nc2ccc(OC(F)(F)F)cc2)c2c(O)ccc(-c3cnccn3)c21 [Example 132, 1-(2-(7-Hydroxy-3,3-dimethyl-4-(pyrazin-2-yl)indolin-1-yl)phenyl)-3-(4-(trifluoromethoxy)phenyl)urea] | 18.8 | 1.29 |
| CC1(C)CN(c2ccccc2NC(=O)Nc2ccc(OC(F)(F)F)cc2)c2c(O)ccc(-c3ncc(F)cn3)c21 [Example 133, 1-(2-(4-(5-Fluoropyrimidin-2-yl)-7-hydroxy-3,3-dimethylindolin-1-yl)phenyl)-3-(4-(trifluoromethoxy)phenyl)urea] | 10.2 | 0.69 |
| CC1(C)CN(c2ccccc2NC(=O)Nc2nc3ccc(F)cc3s2)c2c(O)ccc(-c3nc4ccc(Cl)cc4o3)c21 [Example 134, 1-(2-(4-(6-Chlorobenzo[d]oxazol-2-yl)-7-hydroxy-3,3-dimethylindolin-1-yl)phenyl)-3-(6-fluorobenzo[d]thiazol-2-yl)urea] | 73.8 | 0.19 |
| CC1(C)CN(c2ccccc2NC(=O)Nc2ccc(OC(F)(F)F)cc2)c2c(O)cc(F)c(-c3ccc(C(F)(F)F)nc3)c21 [Example 135, 1-(2-(5-Fluoro-7-hydroxy-3,3-dimethyl-4-(6-(trifluoromethyl)pyridin-3-yl)indolin-1-yl)phenyl)-3-(4-(trifluoromethoxy)phenyl)urea] | 8.7 | 0.15 |
| CC1(C)CN(c2ccccc2NC(=O)Nc2ccc(OC(F)(F)F)cc2)c2c(O)cc(F)c(-c3nc4ccc(F)cc4s3)c21 [Example 144, 1-(2-(5-Fluoro-4-(6-fluorobenzo[d]thiazol-2-yl)-7-hydroxy-3,3-dimethylindolin-1-yl)phenyl)-3-(4-(trifluoromethoxy)phenyl)urea] | 10 | 0.5 |
| CC1(C)CN(c2ccccc2NC(=O)Nc2nc3ccc(F)cc3s2)c2c(O)cc(F)c(-c3nc4ccc(F)cc4s3)c21 [Example 146, 1-(2-(5-Fluoro-4-(6-fluorobenzo[d]thiazol-2-yl)-7-hydroxy-3,3-dimethylindolin-1-yl)phenyl)-3-(6-fluorobenzo[d]thiazol-2-yl)urea] | 47.2 | 0.3 |
| CC1(C)CN(c2ccccc2NC(=O)Nc2csc(Cl)n2)c2c(O)ccc(-c3nc4cc(Cl)ccc4s3)c21 [Example 147, 1-(2-(4-(5-Chlorobenzo[d]thiazol-2-yl)-7-hydroxy-3,3-dimethylindolin-1-yl)phenyl)-3-(2-chlorothiazol-4-yl)urea] | 70.8 | 0.77 |
| CC1(C)CN(c2ccccc2NC(=O)Nc2ccc(OC(F)(F)F)cc2)c2c(O)cc(F)c(-c3nc4ccc(Cl)cc4s3)c21 [Example 148, 1-(2-(4-(6-Chlorobenzo[d]thiazol-2-yl)-5-fluoro-7-hydroxy-3,3-dimethylindolin-1-yl)phenyl)-3-(4-(trifluoromethoxy)phenyl)urea] | 83 | 0.68 |
| CC1(C)CN(c2ccccc2NC(=O)Nc2ccc(OC(F)(F)F)cc2)c2c(O)cc(F)c(-c3ccc(C(F)(F)F)cn3)c21 [Example 149, 1-(2-(5-Fluoro-7-hydroxy-3,3-dimethyl-4-(5-(trifluoromethyl)pyridin-2-yl)indolin-1-yl)phenyl)-3-(4-(trifluoromethoxy)phenyl)urea] | 13 | 0.11 |
| CC1(C)CN(c2ccccc2NC(=O)Nc2csc(Cl)n2)c2c(O)cc(F)c(-c3nc4ccc(F)cc4s3)c21 [Example 150, 1-(2-Chlorothiazol-4-yl)-3-(2-(5-fluoro-4-(6-fluorobenzo[d]thiazol-2-yl)-7-hydroxy-3,3-dimethylindolin-1-yl)phenyl)urea] | 32.7 | 0.41 |
| CC1(C)CN(c2ccccc2NC(=O)Nc2ccc(OC(F)(F)F)cc2)c2c(O)cc(F)c(-c3nc4cc(F)ccc4s3)c21 [Example 151, 1-(2-(5-Fluoro-4-(5-fluorobenzo[d]thiazol-2-yl)-7-hydroxy-3,3-dimethylindolin-1-yl)phenyl)-3-(4-(trifluoromethoxy)phenyl)urea] | 24.1 | 0.48 |
| CC1(C)CN(c2ccccc2NC(=O)Nc2nc3ccc(F)cc3s2)c2c(O)cc(F)c(-c3nc4cc(F)ccc4s3)c21 [Example 152, 1-(2-(5-Fluoro-4-(5-fluorobenzo[d]thiazol-2-yl)-7-hydroxy-3,3-dimethylindolin-1-yl)phenyl)-3-(6-fluorobenzo[d]thiazol-2-yl)urea] | 25.4 | 0.3 |
| CC1(C)CN(c2ccccc2NC(=O)Nc2nc3ccc(Cl)nc3s2)c2c(O)cc(F)c(-c3nc4cc(F)ccc4s3)c21 [Example 153, 1-(5-Chlorothiazolo[5,4-b]pyridin-2-yl)-3-(2-(5-fluoro-4-(5-fluorobenzo[d]thiazol-2-yl)-7-hydroxy-3,3-dimethylindolin-1-yl)phenyl)urea] | 15.4 | 0.23 |
| CC1(C)CN(c2ccccc2NC(=O)Nc2nc3ccc(Cl)cc3s2)c2c(O)cc(F)c(-c3nc4cc(F)ccc4s3)c21 [Example 154, 1-(6-Chlorobenzo[d]thiazol-2-yl)-3-(2-(5-fluoro-4-(5-fluorobenzo[d]thiazol-2-yl)-7-hydroxy-3,3-dimethylindolin-1-yl)phenyl)urea] | 22.5 | 0.35 |
